In patent publication US20180235221A1 (priority 2015, published 2018):

Assays:
[1] = system: Qol resistant Alternaria solani isolate (141); experiment: Microtest, activity against early blight pathogen Alternaria solani; format: cell-based; conditions: single active compound, MTP, 405 nm, 7 days after inoculation
[2] = system: Qol resistant Septoria tritici isolate (3573); experiment: Microtest, activity against causal agent of leaf blotch Septoria tritici; format: cell-based; conditions: single active compound, MTP, 405 nm, 7 days after inoculation

| Structure (SMILES) | Observed efficacy ([1]; 0.016 ppm) [%] | Observed efficacy ([2]; 0.25 ppm) [%] | Observed efficacy ([1]; 0.063 ppm) [%] | Observed efficacy ([1]; 0.25 ppm) [%] | Observed efficacy ([2]; 0.016 ppm) [%] | Observed efficacy ([2]; 0.063 ppm) [%] |
| --- | --- | --- | --- | --- | --- | --- |
| Cc1cccc(-n2nnn(C)c2=O)c1COc1ccn(-c2ccc(Cl)cc2)n1 [II-3, 1-[2-[[1-(4-chlorophenyl)pyrazol-3-yl]oxymethyl]-3-methyl-phenyl]-4-methyl-tetrazol-5-one] | 0 | 17 | – | – | – | – |
| Cn1nnn(-c2cccc(F)c2COc2ccn(-c3ccc(Cl)cc3)n2)c1=O [II-4, 1-[2-[[1-(4-chlorophenyl)pyrazol-3-yl]oxymethyl]-3-fluoro-phenyl]-4-methyl-tetrazol-5-one] | 0 | – | 0 | – | – | – |
| CNC(=O)C(=N/OC)/C(C)=C\COc1ccn(-c2ccc(Cl)cc2Cl)n1 [Compound I-3, (Z,2E)-5-[1-(2,4-dichlorophenyl)pyrazol-3-yl]oxy-2-methoxyimino-N,3-dimethyl-pent-3-en-amide] | – | – | 0 | 0 | 10 | 32 |
| CNC(=O)C(=N/OC)/C(C)=C\COc1ccn(-c2ccc(Cl)cc2)n1 [Compound I-1, (Z,2E)-5-[1-(4-chlorophenyl)pyrazol-3-yl]oxy-2-methoxyimino-N,3-dimethyl-pent-3-enamide] | – | 49 | – | 0 | 10 | 21 |
| Cn1nnn(-c2cccc(Br)c2COc2ccn(-c3ccc(Cl)cc3)n2)c1=O [II-2, 1-[3-bromo-2-[[1-(4-chlorophenyl)pyrazol-3-yl]oxymethyl]phenyl]-4-methyl-tetrazol-5-one] | 0 | – | 0 | 0 | – | – |
| Cn1nnn(-c2cccc(F)c2COc2ccn(-c3ccc(Cl)cc3Cl)n2)c1=O [II-5, 1-[2-[[1-(2,4-dichlorophenyl)pyrazol-3-yl]oxymethyl]-3-fluoro-phenyl]-4-methyl-tetrazol-5-one] | 6 | – | – | – | – | – |
| Cn1nnn(-c2cccc(Cl)c2COc2ccn(-c3ccc(Cl)cc3)n2)c1=O [II-1, 1-[3-chloro-2[[1-(4-chlorophenyl)-1H-pyrazol-3-yl]oxymethyl]phenyl]-4-methyl-tetrazol-5-one] | 0 | 23 | 0 | – | – | – |
| CC(=NOCc1c(C)cccc1-n1nnn(C)c1=O)c1cccc(C(F)(F)F)c1 [II-11, -methyl-4-[3-methyl-2-[[1-[3-(trifluoromethyl)-phenyl]-ethylideneamino]oxymethyl]phenyl]tetrazol-5-one] | 0 | – | 0 | 15 | – | – |
